Source: patent US10624948B2, “Use of cell-permeable peptide inhibitors of the JNK signal transduction pathway for the treatment of various diseases” (Xigen Inflammation Ltd., priority 2013, dated 2020)
Square brackets hold non-standard residues; d marks the D form. Ends that are not written are not given here.

Legend:
[1] = test system: Sprague-Dawley albino rats, light-induced photoreceptor cell death; format: in vivo
Experimental: The aim of this study was to investigate the dose effect of XG-102 on light-induced photoreceptor cell death.
Test item (XG-102: 30 mg/ml, 3 mg/ml, and 0.3 mg/ml) and vehicle (0.9% NaCl) were administered by intravitreal injection in right eyes the day before induction. The reference (Phenyl-N-test-Butylnitrone (PBN) (50 mg/kg)) and vehicle were intraperitoneally injected 30 min before induction then, 3 times during 12 hours of light exposition, then once after induction. Animals were placed in constant light (7000 lux) for 24 h. Electroretinograms (ERG) were recorded before light treatment and on days 9, 16 and 23 after induction. Eyes were then taken for histology and outer nuclear layer (ONL) thickness assessment. The table below summarizes the allocation of animals in treatment groups:
For the intravitreal injection animals were anesthetized by intramuscular injection of a mixture of xylazine/ketamine. Test item (5 μl) and vehicle (5 μl) were injected in the right eye. The injection was performed under an operating microscope in the supratemporal area at pars plana using a 33G-needle mounted on a 50 μl Hamilton. The filled syringe was mounted into the UltraMicroPump III to achieve accurate injection in microliter range. Reference and vehicle were injected intraperitoneally at a dose volume of 2.5 ml/kg using a 30G-needle mounted on a 1 ml-syringe.
Light Exposure: The rats that had been dark-adapted overnight were exposed for 24 hours to a continuous white fluorescent light (7000 lx) in clear plastic cages. Each cage contained one rat. After exposure, the rats returned to rearing cyclic light conditions.
ERG was recorded before induction and 7, 14 and 21 days after cessation of exposure (Days 9, 16 and 23) on right eyes of dark-adapted and anesthezied animals. The latency times (for a- and b-wave) and the a-wave and b-wave amplitudes were measured for each ERG; the latency times were expressed as millisecond and the a-wave and b-wave as a percentage of the baseline value obtained before light exposure. 15 min before measurement 10 μl Mydriaticum® (0.5% tropicamide) were instilled for pupillary dilatation.
Measurement of the ONL Thickness: After ERG testing, animal was euthanized by an overdose of pentobarbital and the right eyes were enucleated, fixed and embedded in paraffin. Sections (5 μm thick) were performed along the vertical meridian and stained with Trichrome-Masson. The vertical meridian included the optic nerve.

TC-3 cells = assay: IL-1 induced pancreatic beta-cell death; format: cell-based; conditions: one single addition 1 μM
Experimental: Inhibition of IL-1 induced pancreatic beta-cell death by the D-TAT-IB1(s) peptide was analyzed. TC-3 cells were incubated as described above for 30 minutes with one single addition of the indicated peptides (1, μM), then IL-1 (10 ng/ml) was added.
Apoptotic cells were then counted after two days of incubation with IL-1 by use of Propidium Iodide and Hoechst 33342 nuclear staining. A minimum of 1,000 cells were counted for each experiment. Standard Error of the Means (SEM) are indicated, n=5.
Long term inhibition of IL-1P induced cell-death by the D-TAT-IB1 peptide was also analyzed. TC-3 cells were incubated as above for 30 minutes with one single addition of the indicated peptides (1 μM), then IL-1 (10 ng/ml) was added, followed by addition of the cytokine every two days. Apoptotic cells were then counted after 15 days of incubation with IL-1 by use of propidium iodide and Hoechst 33342 nuclear staining. […] A minimum of 1.000 cells were counted for each experiment.

[2] = test system: recombinant JNK1, JNK2 and JNK3; assay: Solid phase kinase assay, phosphorylation of c-Jun, ATF2 and Elk1; format: biochemical; conditions: dose response 0-25 μM
Experimental: The effects of the peptides on JNKs-mediated phosphorylation of their target transcription factors were investigated in vitro. Recombinant and non activated JNK1, JNK2 and JNK3 were produced using a TRANSCRIPTION AND TRANSLATION rabbit reticulocyte lysate kit (Promega) and used in solid phase kinase assays with c-Jun, ATF2 and Elk1, either alone or fused to glutathione-S-transferase (GST), as substrates. Dose response studies were performed wherein L-TAT or L-TAT-IB1(s) peptides (0-25 μM) were mixed with the recombinant JNK1, JNK2, or JNK3 kinases in reaction buffer (20 mM Tris-acetate, 1 mM EGTA, 10 mM p-nitrophenyl-phosphate (pNPP), 5 mM sodium pyrophosphate, 10 mM p-glycerophosphate, 1 mM dithiothreitol) for 20 minutes. The kinase reactions were then initiated by the addition of 10 mM MgCl2 and 5 pCi ^33P-dATP and 1 μg of either GST-Jun (aa 1-89), GST-AFT2 (aa 1-96) or GST-ELK1 (aa 307-428). GST-fusion proteins were purchased from Stratagene (La Jolla, Calif.).
Ten μL of glutathione-agarose beads were also added to the mixture. Reaction products were then separated by SDS-PAGE on a denaturing 10% polyacrylamide gel. Gels were dried and subsequently exposed to X-ray films (Kodak). […] The ability of D-TAT, D-TAT-IB1(s) and L-TAT-IB1(s) peptides (0-250 μM dosage study) to inhibit GST-Jun (aa 1-73) phosphorylation by recombinant JNK1, JNK2, and JNK3 by were analyzed as described above. […]

[3] = test system: JNKs from UV-light irradiated HeLa cells or IL-1 treated PTC cells; assay: c-Jun phosphorylation by activated JNKs pulled down with GST-Jun; format: biochemical; conditions: 25 μM
Experimental: The effects of the L-TAT or L-TAT-IB1(s) peptides as defined herein on JNKs activated by stressful stimuli were evaluated using GST-Jun to pull down JNKs from UV-light irradiated HeLa cells or IL-1 treated PTC cells. PTC cells were cultured as described above. HeLa cells were cultured in DMEM medium supplemented with 10% Fetal Calf Serum, 100 μg/mL Streptomycin, 100 units/ml Penicillin and 2 mM Glutamine. One hour prior to being used for cell extract preparation, PTC cells were activated with IL-1 as described above, whereas HeLa cells were activated by UV-light (20 J/m^2). Cell extracts were prepared from control, UV-light irradiated HeLa cells and IL-1 treated TC-3 cells by scraping the cell cultures in lysis buffer (20 mM Tris-acetate, 1 mM EGTA, 1% Triton X-100, 10 mM p-nitrophenyl-phosphate, 5 mM sodium pyrophosphate, 10 mMP-glycerophosphate, 1 mM dithiothreitol). Debris was removed by centrifugation for five minutes at 15,000 rpm in an SS-34 Beckman rotor. One-hundred μg extracts were incubated for one hour at room temperature with one μg GST-jun (amino acids 1-89) and 10 μL of glutathione-agarose beads (Sigma). Following four washes with the scraping buffer, the beads were resuspended in the same buffer supplemented with L-TAT or L-TAT-IB1(s) peptides (25 μM) for 20 minutes. […]

[4] = test system: JNK signaling in HeLa cells (GAL-Jun, MKK4/MKK7); assay: GAL4 luciferase reporter of c-Jun activation; format: cell-based; conditions: 1 μM, 16 hours
From the text: To determine whether the cell-permeable peptides as defined herein could block JNK signaling in vivo, we used a heterologous GAL4 system. HeLa cells, cultured as described above, were co-transfected with the 5×GAL-LUC reporter vector together with the GAL-Jun expression construct (Stratagene) comprising the activation domain of c-Jun (amino acids 1-89) linked to the GAL4 DNA-binding domain. Activation of JNK was achieved by the co-transfection of vectors expressing the directly upstream kinases MKK4 and MKK7 (see Whitmarsh et al., Science 285: 1573 (1999)). Briefly, 3×10^5 cells were transfected with the plasmids in 3.5-cm dishes using DOTAP (Boehringer Mannheim) following instructions from the manufacturer. For experiments involving GAL-Jun, 20 ng of the plasmid was transfected with 1 μg of the reporter plasmid pFR-Luc (Stratagene) and 0.5 μg of either MKK4 or MKK7 expressing plasmids. Three hours following transfection, cell media were changed and TAT and TAT-IB1(s) peptides (1 μM) were added. The luciferase activities were measured 16 hours later using the “Dual Reporter System” from Promega after normalization to protein content. […] Because HeLa cells express JNK1 and JNK2 isoforms but not JNK3, we transfected cells with JNK3.

[5] = test system: AP-1 DNA binding complex, HeLa cell nuclear extracts; assay: Gel retardation assay with AP-1 probe; format: cell-based; conditions: in the presence of TNF-alpha
TC-3 cell cultures = assay: Cellular import of fluorescein labeled TAT and TAT-IB1(s) peptides; format: cell-based; conditions: labeled peptides 1 μM
Experimental: The ability of the L- and D-enantiomeric forms of TAT and TAT-IB1(s) peptides (“TAT-IB peptides”) to enter cells was evaluated. L-TAT, D-TAT, L-TAT-IB1(s), and D-TAT-IB1(s) peptides [SEQ ID NOs: 5, 6, 9 and 12, respectively] were labeled by N-terminal addition of a glycine residue conjugated to fluorescein. Labeled peptides (1 μM) were added to TC-3 cell cultures, which were maintained as described in Example 3. At predetermined times cells were washed with PBS and fixed for five minutes in ice-cold methanol-acetone (1:1) before being examined under a fluorescence microscope. Fluorescein-labeled BSA (1 μM, 12 moles/mole BSA) was used as a control.
Little to no signal was present at 48 hours.
Fluorescent signals from these all-D retro-inverso peptides were still very strong 1 week later, and the signal was only slightly diminished at 2 weeks post treatment.

## CC(C)(C)[N+]([O-])=Cc1ccccc1 [PBN, Phenyl-N-tert-Butylnitrone, reference compound]
[1]; PBN i.p., Day 23
  decrease of mean ONL thickness vs untreated eyes: 16%
[1]; rat, in vivo, ip, 50 mg/kg
  ERG B-wave amplitude, percent of the baseline, Mean ± SD: 100 ± 18.6%

## TDQSRPVQPFLNLTTPRKPRYTDPPRRRQRRKKRG ([dT][dD][dQ][dS][dR][dP][dV][dQ][dP][dF][dL][dN][dL][dT][dT][dP][dR][dK][dP][dR][dY][dT][dD][dP][dP][dR][dR][dR][dQ][dR][dR][dK][dK][dR]G) [D-TAT-IB1]
TC-3 cells; IL-1 10 ng/ml
  IL-1 induced apoptosis after two days: decreased IL-1 induced apoptosis to a similar extent as L-TAT-IB peptides

## GRKKRRQRRRPPRPKRPTTLNLFPQVPRSQD (Description of sequence: L-TAT-IB1 (s) (see Table 1)) [L-TAT-IB1(s)]
[2]
  peptide dose giving nearly complete inhibition of c-Jun, ATF2 and Elk1 phosphorylation by JNKs: 2.5 µM
TC-3 cells; IL-1 every two days
  long term (15 day) protection from IL-1 induced cell-death: but not L-TAT-IB1(s), was able to confer long term (15 day) protection
[3]
  prevention of phosphorylation of c-Jun by activated JNKs: efficiently prevented phosphorylation of c-Jun by activated JNKs
[4]
  activation of c-Jun following MKK4 and MKK7 mediated activation of JNK (luciferase): blocked activation of c-Jun following MKK4 and MKK7 mediated activation of JNK
[5]
  formation of the AP-1 DNA binding complex: decrease the formation of the AP-1 DNA binding complex

## Fluorescein-labeled BSA: fluorescein labeled bovine serum albumin (1 μM BSA, 12 moles fluorescein/mole BSA), control
TC-3 cell cultures
  entry into cells: did not enter the cells
